For orientation: pIC50 means the IC50 on a negative log10 scale, so that one unit is a factor of ten. Read a high pIC50 as a low IC50.

Structures are written as SMILES. pIC50: −log10 of the molar value.

The record followed here is ChEMBL document CHEMBL1137164, “Antioxidative activities of novel diphenylalkyl piperazine derivatives with high affinities for the dopamine transporter” (Bioorg Med Chem Lett, 2004).

For this assay, the species on record is Canis familiaris. As to the kind of experiment: inhibitory concentration against auto-oxidative lipid peroxidation in canine brain homogenate.
As for `CN(C)c1ccc(NCC(O)CN2CCN(CCCC(c3ccc(F)cc3)c3ccc(F)cc3)CC2)cc1` (stereo unspecified), the pIC50 is 5.66.

Take `Nc1ccc(NCC(O)CN2CCN(CCCC(c3ccc(F)cc3)c3ccc(F)cc3)CC2)cc1` (stereo unspecified): the negative logarithm of the IC50 (pIC50) was 5.57.

With `Oc1ccc(NCC(O)CN2CCN(CCCC(c3ccc(F)cc3)c3ccc(F)cc3)CC2)cc1` (stereo unspecified), the pIC50 is 6.49.

`CC(C)(C)c1cc(NCC(O)CN2CCN(CCCC(c3ccc(F)cc3)c3ccc(F)cc3)CC2)cc(C(C)(C)C)c1O` (stereo unspecified) had a pIC50 of 5.55.

In the case of `COc1cc(NCC(O)CN2CCN(CCCC(c3ccc(F)cc3)c3ccc(F)cc3)CC2)cc(OC)c1OC` (stereo unspecified), the negative logarithm of the IC50 (pIC50) was 5.85.

Compound `OC(CNc1ccc(Cl)cc1)CN1CCN(CCCC(c2ccc(F)cc2)c2ccc(F)cc2)CC1` (stereo unspecified) gave a pIC50 of 5.07.

As to `OC(CNc1ccc(Cl)c(Cl)c1)CN1CCN(CCCC(c2ccc(F)cc2)c2ccc(F)cc2)CC1` (stereo unspecified), the pIC50 is 4.64.

As for `OC(CNc1ccccc1)CN1CCN(CCCC(c2ccc(F)cc2)c2ccc(F)cc2)CC1` (stereo unspecified), the pIC50 is 5.19.

Take `O=[N+]([O-])c1ccc(NCC(O)CN2CCN(CCCC(c3ccc(F)cc3)c3ccc(F)cc3)CC2)cc1` (stereo unspecified): the pIC50 was 3.74.

For `OC(CNc1ccccc1)CN1CCN(CCCCC(c2ccc(F)cc2)c2ccc(F)cc2)CC1` (stereo unspecified), the pIC50 was 5.08.

In the case of `OC(CNc1ccccc1)CN1CCN(C(c2ccc(F)cc2)c2ccc(F)cc2)CC1` (stereo unspecified), the pIC50 was 5.16.

Regarding `OC(CNc1ccccc1)CN1CCN(CCC(c2ccc(F)cc2)c2ccc(F)cc2)CC1` (stereo unspecified), the pIC50 was 4.96.

On to `COc1ccc(NCC(O)CN2CCN(CCCC(c3ccc(F)cc3)c3ccc(F)cc3)CC2)cc1` (stereo unspecified), for which the pIC50 was 5.80.

`OC(CNc1ccccc1)CN1CCN(CC(c2ccc(F)cc2)c2ccc(F)cc2)CC1` (stereo unspecified) showed a pIC50 of 4.96.

In turn, `Cc1ccc(NCC(O)CN2CCN(CCCC(c3ccc(F)cc3)c3ccc(F)cc3)CC2)cc1` (stereo unspecified) gave a pIC50 of 5.21.

With `Cc1c(C)c2c(c(C)c1O)CC[C@@](C)(CCC[C@H](C)CCC[C@H](C)CCCC(C)C)O2` [ALPHA-TOCOPHEROL], the negative logarithm of the IC50 (pIC50) is 5.82.
